Calls of active or inactive are those of the source. No cut-off for these calls is given here. Starred links: 1 amine or outer side, 2 acyl side, 3 side chain; linkers in the order of their positions; H or OH if unused. Residues, ends and D or L forms follow the SMILES beside them. Groups on a side chain read outwards from the residue. *: point of attachment. Suc = O=C(CCC(=O)[*:2])[*:1]; NH(CH2)4NH2 = NCCCCN*; CO = O=C([*:1])[*:2]
Assays:
[1] = molecular target: T1, Neuropeptide Y receptor type 4 (Homo sapiens, UniProt P50391); experiment: Agonist activity at human neuropeptide Y Y4 receptor expressed in HEK293T-ARRB1 cells assessed as stimulation of beta-arrestin 1 recruitment by multimode plate reader; format: functional, cell-based
T1 sequence (P50391 whole entry): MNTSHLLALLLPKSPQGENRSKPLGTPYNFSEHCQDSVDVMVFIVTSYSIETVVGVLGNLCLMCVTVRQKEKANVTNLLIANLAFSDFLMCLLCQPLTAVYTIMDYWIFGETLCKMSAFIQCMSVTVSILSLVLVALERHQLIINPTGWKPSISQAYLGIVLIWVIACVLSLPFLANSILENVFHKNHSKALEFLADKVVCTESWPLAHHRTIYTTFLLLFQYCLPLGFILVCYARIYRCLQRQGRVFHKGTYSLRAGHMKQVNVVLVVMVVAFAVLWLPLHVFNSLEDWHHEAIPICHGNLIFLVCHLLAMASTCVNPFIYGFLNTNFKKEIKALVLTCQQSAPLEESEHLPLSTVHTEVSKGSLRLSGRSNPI

Homo sapiens [2] = species: Homo sapiens; experiment: (§1) Selectivity ratio, Ki for displacement of [3H]UR-MK299 from human neuropeptide Y Y1 receptor in human SK-N-MC cells measured after 90 mins by scintillation counting analysis to Ki for displacement of [3H]UR-KK200 from human neuropeptide Y Y4 receptor expressed in CHO-mtAEQ cells co-expressing Gqi5 measured after 90 mins by scintillation counting analysis; format: cell-based
[3] = molecular target: T2, Neuropeptide Y receptor type 5 (Homo sapiens, UniProt Q15761); experiment: Displacement of [3H]propionyl-pNPY from human neuropeptide Y Y5 receptor in human HEC-1B cells measured after 90 mins by scintillation counting analysis; format: cell-based, HEC-1B cell line
T2 sequence (Q15761 whole entry): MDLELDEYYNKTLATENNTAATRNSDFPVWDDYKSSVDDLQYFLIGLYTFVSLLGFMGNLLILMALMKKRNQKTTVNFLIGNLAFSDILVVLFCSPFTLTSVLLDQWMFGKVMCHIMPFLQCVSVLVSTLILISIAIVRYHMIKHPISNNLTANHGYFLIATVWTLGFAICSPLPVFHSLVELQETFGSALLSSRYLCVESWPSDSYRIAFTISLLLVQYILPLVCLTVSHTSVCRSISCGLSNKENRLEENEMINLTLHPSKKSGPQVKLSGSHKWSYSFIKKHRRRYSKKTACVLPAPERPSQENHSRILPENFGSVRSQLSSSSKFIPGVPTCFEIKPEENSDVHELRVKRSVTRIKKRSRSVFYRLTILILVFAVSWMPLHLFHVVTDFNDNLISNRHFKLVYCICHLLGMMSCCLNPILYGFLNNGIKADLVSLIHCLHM

[4] = molecular target: T3, Neuropeptide Y receptor type 1 (Homo sapiens, UniProt P25929); experiment: Displacement of [3H]UR-MK299 from human neuropeptide Y Y1 receptor in human SK-N-MC cells measured after 90 mins by scintillation counting analysis; format: cell-based
T3 sequence (P25929 whole entry): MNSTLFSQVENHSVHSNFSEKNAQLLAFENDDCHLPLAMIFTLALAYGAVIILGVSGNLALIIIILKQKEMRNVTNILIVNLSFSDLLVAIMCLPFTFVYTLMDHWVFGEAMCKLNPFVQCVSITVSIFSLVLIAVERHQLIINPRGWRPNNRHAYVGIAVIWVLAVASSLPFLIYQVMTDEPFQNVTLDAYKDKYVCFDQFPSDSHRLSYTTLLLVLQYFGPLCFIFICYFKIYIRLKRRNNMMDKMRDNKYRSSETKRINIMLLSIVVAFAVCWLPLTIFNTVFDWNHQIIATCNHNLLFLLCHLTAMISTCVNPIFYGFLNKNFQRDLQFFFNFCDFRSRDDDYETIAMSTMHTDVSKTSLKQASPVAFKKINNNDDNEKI

[5] = molecular target: T1, Neuropeptide Y receptor type 4; experiment: Displacement of [3H]UR-KK200 from human neuropeptide Y Y4 receptor expressed in CHO-mtAEQ cells co-expressing Gqi5 measured after 90 mins by scintillation counting analysis; format: cell-based
Homo sapiens [6] = species: Homo sapiens; experiment: as §1, with “[3H]propionyl-pNPY” for “[3H]UR-MK299”, “Y5” for “Y1”, “HEC-1B” for “SK-N-MC”; format: cell-based
Homo sapiens [7] = species: Homo sapiens; experiment: Selectivity ratio, Ki for displacement of [3H]UR-MK299 from human neuropeptide Y Y2 receptor expressed in CHO cells measured after 90 mins by scintillation counting analysis to Ki for displacement of [3H]UR-KK200 from human neuropeptide Y Y4 receptor expressed in CHO-mtAEQ cells co-expressing Gqi5 measured after 90 mins by scintillation counting analysis; format: cell-based
[8] = molecular target: T1, Neuropeptide Y receptor type 4; experiment: Intrinsic activity at human neuropeptide Y Y4 receptor expressed in HEK293T-ARRB1 cells assessed as stimulation of beta-arrestin 1 recruitment by multimode plate reader relative to hPP; format: functional, cell-based
[9] = molecular target: T1, Neuropeptide Y receptor type 4; experiment: Agonist activity at human neuropeptide Y Y4 receptor expressed in HEK293T-ARRB2 cells assessed as stimulation of beta-arrestin 2 recruitment by multimode plate reader; format: functional, cell-based
[10] = molecular target: T1, Neuropeptide Y receptor type 4; experiment: Intrinsic activity at human neuropeptide Y Y4 receptor expressed in HEK293T-ARRB2 cells assessed as stimulation of beta-arrestin 2 recruitment by multimode plate reader relative to hPP; format: functional, cell-based
[11] = molecular target: T1, Neuropeptide Y receptor type 4; experiment: Displacement of [3H]UR-KK200 from human neuropeptide Y Y4 receptor expressed in CHO-mtAEQ cells co-expressing Gqi5 assessed as fold change in affinity measured after 90 mins by scintillation counting analysis relative to Ac-Arg-Tyr-Arg-Leu-Arg-Tyr-NH2; format: cell-based; details: filed as agonist
[12] = molecular target: T4, Neuropeptide Y receptor type 2 (Homo sapiens, UniProt P49146); experiment: Displacement of [3H]UR-MK299 from human neuropeptide Y Y2 receptor expressed in CHO cells measured after 90 mins by scintillation counting analysis; format: cell-based
T4 sequence (P49146 whole entry): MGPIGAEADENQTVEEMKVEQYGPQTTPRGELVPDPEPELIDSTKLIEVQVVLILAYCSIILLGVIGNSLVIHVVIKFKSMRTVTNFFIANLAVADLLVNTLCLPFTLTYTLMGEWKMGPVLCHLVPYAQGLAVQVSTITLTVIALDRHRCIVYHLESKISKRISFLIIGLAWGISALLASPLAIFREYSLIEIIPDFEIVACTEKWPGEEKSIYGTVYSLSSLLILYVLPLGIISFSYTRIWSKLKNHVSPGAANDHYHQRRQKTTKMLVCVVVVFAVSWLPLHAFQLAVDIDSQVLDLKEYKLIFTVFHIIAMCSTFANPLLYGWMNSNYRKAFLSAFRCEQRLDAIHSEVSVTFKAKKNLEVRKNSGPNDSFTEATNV

[13] = molecular target: T1, Neuropeptide Y receptor type 4; experiment: Intrinsic activity at human neuropeptide Y Y4 receptor expressed in CHO-mtAEQ cells co-expressing Gqi5 by calcium aequorin assay; format: functional, cell-based
[14] = molecular target: T1, Neuropeptide Y receptor type 4; experiment: Agonist activity at human neuropeptide Y Y4 receptor expressed in CHO-mtAEQ cells co-expressing Gqi5 by calcium aequorin assay; format: functional, cell-based

EC50 ([1]; read-out: EC50) [µM]	Ki ([3]; hec-1b cell line, read-out: Ki) [µM]	Ki ([3]; read-out: pKi (converted)) [µM]	Ki ([4]; read-out: pKi (converted)) [µM]	Ki ([5]; read-out: Ki) [µM]	Ki ([5]; read-out: pKi (converted)) [µM]	Intrinsic activity [8]	EC50 [9] [µM]	Intrinsic activity [10]	fold change (FC) [11]	Ki ([12]; read-out: Ki) [µM]	Ki ([12]; read-out: pKi (converted)) [µM]	Intrinsic activity [13]	EC50 [14] [µM]	EC50 ([1]; read-out: pEC50 (converted)) [µM]	Structure (SMILES)	Selectivity ratio (Homo sapiens [2])	Selectivity ratio (Homo sapiens [6])	Selectivity ratio (Homo sapiens [7])	other results
0.27	> 10	> 10	> 10	0.0071	0.00692	57%	0.295	61%	-2.1	> 10	> 10				CC(C)C[C@H](NC(=O)[C@H](CCCNC(=N)NC(=O)NCCCCN)NC(=O)[C@H](Cc1ccc(O)cc1)NC(=O)[C@H](CCCCN)NC(=O)CCC(=O)O)C(=O)N[C@@H](CCCNC(=N)N)C(=O)N[C@@H](Cc1ccc(O)cc1)C(N)=O (Suc-KYR([CO-NH(CH2)4NH2])LRY-NH2)	> 1400	> 1000	> 1400	Ki ([4]; sk-n-mc, read-out: Ki): > 10 µM
0.18		> 1000	> 3.16	0.0014		87%	0.0933	83%	2.4	> 3	> 3.16	61%	0.363		CC(C)C[C@H](NC(=O)[C@@H]1CCCNC(=N)NC(=O)NCCCCNC(=O)CCC(=O)N[C@@H](CCCNC(=N)N)C(=O)N1)C(=O)N[C@@H](CCCNC(=N)N)C(=O)N[C@@H](Cc1ccc(O)cc1)C(N)=O (HELM PEPTIDE1{R.[N=C(NCCC[C@H](N[*:1])C(=O)[*:2])N[*:3]].L.R.Y.[am]}|CHEM1{[O=C(CCC(=O)[*:1])NCCCCNC(=O)[*:2]]}$PEPTIDE1,CHEM1,1:R1-1:R1|PEPTIDE1,CHEM1,2:R3-1:R2$$$V2.0)	> 2100	> 7100	> 2100	Ki ([3]; read-out: Ki): > 10 µM; Ki ([4]; read-out: Ki): > 3 µM
	> 10	> 10	> 3.16	0.05		inactive	0.145	inactive	-15	> 3	> 3.16	inactive	0.0759	0.0851	N=C(N)NCCC[C@H](NC(=O)CCC(=O)O)C(=O)N[C@@H](Cc1ccc(O)cc1)C(=O)N[C@@H](CCCNC(=N)NC(=O)NCCCCN)C(=O)N[C@@H](Cc1c[nH]c2ccccc12)C(=O)N[C@@H](CCCNC(=N)N)C(=O)N[C@@H](Cc1ccc(O)cc1)C(N)=O (single isomer, unassigned)	> 60	> 200	> 60	Ki ([4]; read-out: Ki): > 3 µM
0.52	> 10	> 10	> 10	0.028	0.0288	35%	0.355	47%	-8.2	> 10	> 10	45%	0.38		N=C(N)NCCC[C@@H]1NC(=O)CCC(=O)NCCCNC(=O)NC(=N)NCCC[C@@H](C(=O)N[C@@H](Cc2c[nH]c3ccccc23)C(=O)N[C@@H](CCCNC(=N)N)C(=O)N[C@@H](Cc2ccc(O)cc2)C(N)=O)NC(=O)[C@H](Cc2ccc(O)cc2)NC1=O (HELM PEPTIDE1{R.Y.[N=C(NCCC[C@H](N[*:1])C(=O)[*:2])N[*:3]].W.R.Y.[am]}|CHEM1{[O=C(CCC(=O)[*:1])NCCCNC(=O)[*:2]]}$PEPTIDE1,CHEM1,1:R1-1:R1|PEPTIDE1,CHEM1,3:R3-1:R2$$$V2.0)	> 350	> 350	> 350	
0.99		> 10	> 10	0.01		71%	0.759	60%	-2.9	> 10	> 10				CC(C)C[C@H](NC(=O)[C@H](CCCNC(=N)NC(=O)NCCCCN)NC(=O)[C@H](CCCNC(=N)N)NC(=O)CCC(=O)O)C(=O)N[C@@H](CCCNC(=N)N)C(=O)N[C@@H](Cc1ccc(O)cc1)C(N)=O (Suc-RR([CO-NH(CH2)4NH2])LRY-NH2)	> 1000	> 1000	> 1000	Ki ([4]; sk-n-mc, read-out: Ki): > 10 µM

Second part, the compound before the results:

Structure (SMILES)	EC50 ([1]; read-out: EC50) [µM]	Ki ([3]; hec-1b cell line, read-out: Ki) [µM]	Ki ([3]; read-out: pKi (converted)) [µM]	Ki ([4]; read-out: pKi (converted)) [µM]	Ki ([5]; read-out: Ki) [µM]	Ki ([5]; read-out: pKi (converted)) [µM]	Intrinsic activity [8]	EC50 [9] [µM]	Intrinsic activity [10]	fold change (FC) [11]	Ki ([12]; read-out: Ki) [µM]	Ki ([12]; read-out: pKi (converted)) [µM]	Intrinsic activity [13]	EC50 [14] [µM]	EC50 ([1]; read-out: pEC50 (converted)) [µM]	Selectivity ratio (Homo sapiens [2])	Selectivity ratio (Homo sapiens [6])	Selectivity ratio (Homo sapiens [7])	other results
CC(C)C[C@H](NC(=O)[C@H](CCCNC(=N)N)NC(=O)[C@H](Cc1ccc(O)cc1)NC(=O)[C@H](CCCNC(=N)N)NC(=O)CCC(=O)O)C(=O)N[C@@H](CCCNC(=N)NC(=O)NCCCN)C(=O)N[C@@H](Cc1ccc(O)cc1)C(N)=O					0.053		inactive	> 10	inactive	-16			inactive	> 10	> 10				
CC(C)C[C@@H]1NC(=O)[C@H](CCCNC(=N)N)NC(=O)[C@H](Cc2ccc(O)cc2)NC(=O)[C@H](CCCNC(=N)N)NC(=O)CCC(=O)NCCCNC(=O)NC(=N)NCCC[C@@H](C(=O)N[C@@H](Cc2ccc(O)cc2)C(N)=O)NC1=O					0.14		inactive	> 10	inactive	-41			inactive	> 10	> 10				
CC(=O)N[C@@H](CCCNC(=N)N)C(=O)N[C@@H](Cc1ccc(O)cc1)C(=O)N[C@@H](CCCNC(=N)N)C(=O)N[C@@H](CC(C)C)C(=O)N[C@@H](CCCNC(=N)N)C(=O)N[C@@H](Cc1ccc(O)cc1)C(N)=O			> 3.16	> 3.16			55%		61%			> 3.16	75%			> 830	> 830	> 830	
CC(C)C[C@H](NC(=O)[C@@H]1CC(=O)NCC(=O)N[C@H](CCCNC(=N)N)C(=O)N[C@@H](CCCNC(=N)N)C(=O)N1)C(=O)N[C@@H](CCCNC(=N)N)C(=O)N[C@@H](Cc1ccc(O)cc1)C(N)=O					0.17	0.138	inactive	> 10	inactive	-50			inactive	> 10	> 10				

Reference: ChEMBL document CHEMBL4840359, “N-Terminus to Arginine Side-Chain Cyclization of Linear Peptidic Neuropeptide Y Y4 Receptor Ligands Results in Picomolar Binding Constants” (J Med Chem, 2021)
